# Earlier results, collected in paper PMC3178464 (Bioorganic & medicinal chemistry, 2009).
# Tested on: ER
substance,measurement,value
17α-ethynylestradiol [EE2],affinity for ER relative to E2,nearly three-fold higher affinity
